The first test addresses enkephalinase. The experiment in a line: in vitro assay of the enkephalinase-inhibitory activity (J. Pharmac. Exp. Ther., 1987, 243, 666). Particulars: (E) isomer, read-out: (E) Isomer IC50. The format is biochemical. As for the experimental part: An assay of the enkephalinase-inhibitory activity (J. Pharmac. Exp. Ther., 1987, 243, 666) of the compounds of formulae (Ia) and (Ib) was performed.
As to `CC(CC(=O)O)NC(=O)/C(=C\c1ccccc1)CS` (racemic) [Ex 12, 3-(RS)-N-(E)-[1-oxo-2-(mercaptomethyl)-3-phenylpropenyl]aminobutanoic acid], the IC50 – broadly, the concentration that inhibits the measured activity by half – stood at 7 nM.

Regarding `CC(CNC(=O)/C(=C\c1ccccc1)CS)C(=O)O` (racemic) [Ex 14], the IC50 is 10 nM. Take `O=C(O)CCNC(=O)/C(=C\c1ccccc1)CS` [Ex 4, N-(E)-[1-oxo-2-(mercaptomethyl)-3-phenylpropenyl]-β-alanine]: the IC50 is 2.8 nM. In the case of `O=C(O)CCCNC(=O)/C(=C\c1ccccc1)CS` [Ex 16, 4-N-(E)-[1-oxo-2-(mercaptomethyl)-3-phenylpropenyl]aminobutanoic acid], the IC50 came to 6.4 nM. The same measure, in the same setting: under `COc1ccc(/C=C(/CS)C(=O)NCCC(=O)O)cc1` [Ex 19, N-(E)-[1-oxo-2-(mercaptomethyl)-3-(4-methoxyphenyl)propenyl]-β-alanin] stands 2.7 nM; under `O=C(O)CCNC(=O)/C(=C\c1ccc(C(F)(F)F)cc1)CS` [Ex 22, N-(E)-[1-oxo-2-(mercaptomethyl)-3-(4-trifluoromethylphenyl)propenyl]-β-alanine], 12.1 nM. On the same count and under the same terms, then `O=C(O)CCNC(=O)/C(=C\c1ccc(-c2ccccc2)cc1)CS` [Ex 25, N-(E)-[1-oxo-2-(mercaptomethyl)-3-(4-phenylphenyl)propenyl]-β-alanine], with 7.5 nM; and `CCOc1ccc(/C=C(/CS)C(=O)NCCC(=O)O)cc1` [Ex 28, N-(E)-[1-oxo-2-(mercaptomethyl)-3-(4-ethoxyphenyl)propenyl]-β-alanine], with 11.8 nM; and `O=C(O)CCNC(=O)/C(=C\c1cc(F)cc(F)c1)CS` [Ex 33, N-(E)-[1-oxo-2-(mercaptomethyl)-3-(3,5-difluorophenyl)propenyl]-β-alanine], with 5.9 nM.

For the compound `O=C(O)CCNC(=O)/C(=C\c1ccc(Oc2ccccc2)cc1)CS` [Ex 41, N-(E)-[1-oxo-2-(mercaptomethyl)-3-(4-phenoxyphenyl)propenyl]-β-alanine], the IC50 was 5.8 nM.

Take `CC(=O)SC/C(=C/c1ccc2c(c1)OCO2)C(=O)NCCC(=O)OCc1ccccc1` [Ex 43, benzyl N-(E)-[1-oxo-2-(acetylthiomethyl)-3-(3,4-methylenedioxyphenyl)propenyl]-β-alaninate]: the IC50 was 19 nM.

The test is the same for the next values; noted with them: (Z) isomer, read-out: (Z) Isomer IC50.
On to `O=C(O)CCNC(=O)/C(=C/c1ccccc1)CS` [Ex 38, N-(Z)-[1-oxo-2-(mercaptomethyl)-3-phenylpropenyl]-β-alanine], for which the IC50 was 171 nM.

Source of the values: patent publication US5646313A, “Amino acid derivatives, processes for their preparation and their therapeutic application” (Societe Civile Bioprojet, priority 1993, dated 1997).
